Paper PMC11345829, “Discovery of Potent Isoquinolinequinone N-Oxides to Overcome Cancer Multidrug Resistance” (Journal of Medicinal Chemistry, 2024)
Like-named read-outs stand apart in the source and are kept apart here.

Assays:
[1] = tested on: NCI-H460/R; experiment: SRB cell growth inhibition assay; assay type: cell-based, human; conditions: for selectivity ratio NSCLC: GI50 sensitive NCI-H460 / GI50 MDR NCI-H460/R; for GI50: Homo sapiens, NCI-H460, 48 h, NSCLC MDR, mean ± SEM; for GI50 / GI50 concentration range against MDR NCI-H460/R: SRB assay; for GI50 concentration range against MDR NCI-H460/R: in words
Method: Two distinct pairs of counterpart drug-sensitive and MDR human tumor cell lines were used, namely the non-small lung cancer (NSCLC) NCI-H460 (same cell line as in the NCI screen) and its MDR counterpart cell line NCI-[…] and the colorectal cancer DLD1 and its MDR counterpart cell line DLD1-TxR (Table 3). The screening was performed using the SRB assay, and the GI50 for each compound was determined by interpolation on the attained concentration-response curves and compared with NCI60 screening data (SI, Figures S62-S63; Table S21). Two pairs of drug-sensitive and multidrug-resistant (MDR) cell lines from human nonsmall cell lung cancer (NSCLC), NCI-H460 and NCI-[…], and colorectal cancer, DLD1 and DLD1-TxR, kindly provided by Dr M. […] The A549 cell line was maintained in Dulbecco's Modified Eagle Medium (DMEM) supplemented with 4.5 g/L Glucose with UltraGlutamine with sodium pyruvate (Lonza, Basel Stücki, Switzerland), enriched with 10% fetal bovine serum (FBS; Biowest, Nuaillé, France). […] For the sulforhodamine B (SRB) and 3D cell culture assays, the media were supplemented with 5% FBS. The remaining experiments were performed with medium supplemented with 10% FBS. […] The SRB assay was performed as previously described.[78],[79] Briefly, after fixing cells with 10% (w/v) ice-cold trichloroacetic acid (Merck Life Science), the proteins were stained with 0.4% of SRB (Merck Life Science) in acetic acid (Merck Life Science). Following washing steps in acetic acid, the bound dye was solubilized with 10 mM Tris base solution (Merck Life Science). Absorbance was measured at 510 nm in a multiplate reader (Synergy Mx, Biotek Instruments Inc., Winooski, Vermont, USA) using the Gen5 software (Biotek Instruments Inc.).

[2] = tested on: NCI60 tumor cell line panel; experiment: NCI60 five-dose screen, mean over panel; assay type: cell-based, human
Source text: (§1) The concentration−response curve generated enables the determination of three criteria, GI50 (drug concentration at which 50% of cell growth is inhibited), total growth inhibition (TGI) and LC50 (drug concentration at which 50% of tumor cells are killed) which can be used to compare effectiveness against any compound tested in the screen since its inception.
(§2) S2.1 NCI Screening Assay Experimental details
(§3) NCI Screening Assay Experimental: Cancer cell growth assays (NCI60 screening) 5,6 One-dose study: Tested compounds were initially solubilised in DMSO, diluted into RPMI 1640 and 5% fetal bovine serum/L-glutamine, and added to 96-well plates containing cell lines previously cultured for 24 h. After 48 h incubation, the media were removed, and the cells were fixed and stained with sulforhodamine B to determine overall percent growth/ total protein content. Unbound dye was removed with five washes of 1% acetic acid, and the plates were allowed to air dry. The dye was then resolubilised in Tris buffer, and the colorimetric absorbance was measured (515 nm). Growth inhibition was measured relative to the response generated from proliferating cells cultured under identical conditions for 48 h. Data from one-dose experiments pertains to the percentage growth at […]
(§4) Five-dose study: Serial 5 × 10-fold dilution from an initial DMSO stock solution was performed, prior to incubation at each individual concentration (10 nM, 100 nM, 1 μM, 10 μM and 100 μM). Using seven absorbance measurements (time zero (Tz), control growth (C), and test growth in the presence of drug at the five concentration levels (Ti)), the percentage growth was calculated at each of the drug concentrations levels. Percentage growth inhibition was calculated as: [(Ti − Tz)/(C − Tz)] × 100 for concentrations for which Ti ≥ Tz, [(Ti − Tz)/Tz] × 100 for concentrations for which Ti < Tz. Three dose response parameters were calculated for each experimental agent. […]
(§5) was calculated from [(Ti − Tz)/(C − Tz)] × 100 = 50, which is the drug concentration resulting in a 50% reduction in the net protein increase (as measured by sulforhodamine B staining) in control cells during the drug incubation. The drug concentration resulting in total growth inhibition (TGI) was calculated from Ti = Tz. The LC50 (concentration of drug resulting in a 50% reduction in the measured protein at the end of the drug treatment as compared to that at the beginning) indicating a net loss of cells following treatment was calculated from [(Ti − Tz)/Tz] × 100 = −50. Values were calculated for each of these three parameters if the level of activity was reached; however, if the effect was not reached or was exceeded, the value for that parameter was expressed as greater or less than the maximum or minimum concentration tested.

[3] = tested on: NCI60 tumor cell line panel; experiment: NCI60 one-dose screen (10 μM), mean growth; assay type: cell-based, human; conditions: 48 h, one dose 10 μM, mean cell growth of 60 tumor cell lines; for activity at 10 µM: Homo sapiens
Method: as §2
as §3, with “h.” for “h. Data from one-dose experiments pertains to the percentage growth at”

[4] = tested on: OVCAR-8; experiment: NCI60 five-dose GI50; assay type: cell-based; conditions: Homo sapiens, ovarian
Source text: as §1, §2
as §3, with “nm).” for “nm). Growth inhibition was measured relative to the response generated from proliferating cells cultured under identical conditions for 48 h. Data from one-dose experiments pertains to the percentage growth at”
as §4, §5

[5] = tested on: NCI-ADR/RES; experiment: NCI60 five-dose GI50; assay type: cell-based; conditions: Homo sapiens
Source text: as §1, §2, §3, §4, §5

[6] = tested on: K-562; experiment: NCI60 five-dose GI50; assay type: cell-based; conditions: Homo sapiens, K562, five dose; leukemia
Source text: as §1, §2, §3, §4, §5

[7] = Homo sapiens, five dose, across 57-60 cell lines (number given per compound), read-out: Mean of GI50 as Log 10 Concentration (SD) (converted)
[8] = five dose, mean over 52 human tumor cell lines common to all analogues, read-out: mean GI50

**Q.** For `COC(=O)c1c2c(c(C)[n+]([O-])c1C)C(=O)C=C(NCc1ccccc1)C2=O` [Compound 2], which “selectivity ratio NSCLC” value [1] is on record?
**A.** 1.7

**Q.** What about the GI50 [1] of the same compound?
**A.** 830 ± 20 nM

**Q.** What about the “GI50 concentration range against MDR NCI-H460/R” value (from here on “GI50 concentration range”) [1] of the same compound?
**A.** nanomolar range

**Q.** What about the “fold more potent average GI50 than 1” value ([2]; 2 versus 1) of the same compound?
**A.** 2.8 fold

**Q.** What does the source list for `COC(=O)c1c2c(c(C)[n+]([O-])c1C)C(=O)C(NCc1ccc(F)cc1)=CC2=O` [Compound 4]?
**A.** activity at 10 µM [3]: 18%; selectivity ratio NSCLC [1]: 1.2; GI50 [1]: 2250 ± 270 nM; GI50 [2, 7]: 1410 nM; GI50 [2, 8]: 1540 nM; GI50 [4]: 1590 nM; GI50 ([5]; MDR ovarian): 1680 nM; GI50 [6]: 2430 nM

**Q.** Which activity at 10 µM [3] does the source give for `COC(=O)c1c2c(c(C)[n+]([O-])c1C)C(=O)C=C(NCc1ccc(F)cc1)C2=O` [Compound 5] here?
**A.** -37%

**Q.** What about the “mean growth (%, 10 μM)” value [3] of the same compound?
**A.** -37%

**Q.** And the “selectivity ratio NSCLC” value [1]?
**A.** 1.6

**Q.** What about the GI50 [1] of the same compound?
**A.** 360 ± 110 nM

**Q.** And the “GI50 concentration range” value [1]?
**A.** nanomolar range

**Q.** And the GI50 [2, 7]?
**A.** 583 nM

**Q.** And the GI50 [2, 8]?
**A.** 760 nM

**Q.** What about the GI50 [4] of the same compound?
**A.** 406 nM

**Q.** And the GI50 ([5]; MDR ovarian)?
**A.** 487 nM

**Q.** And the GI50 [6]?
**A.** 352 nM

**Q.** For `COC(=O)c1c2c(c(C)[n+]([O-])c1C)C(=O)C(NCc1ccc(O)cc1)=CC2=O` [Compound 20], which activity at 10 µM [3] is on record?
**A.** -21%

**Q.** What about the “mean growth (%, 10 μM)” value [3] of the same compound?
**A.** -21%

**Q.** What about the “selectivity ratio NSCLC” value [1] of the same compound?
**A.** 1.2

**Q.** And the GI50 [1]?
**A.** 4840 ± 740 nM

**Q.** What about the GI50 [2, 7] of the same compound?
**A.** 1310 nM

**Q.** And the GI50 [2, 8]?
**A.** 1580 nM

**Q.** And the GI50 [4]?
**A.** 1080 nM

**Q.** And the GI50 ([5]; MDR ovarian)?
**A.** 2200 nM

**Q.** What about the GI50 [6] of the same compound?
**A.** 1630 nM

**Q.** Which results are given for `COC(=O)c1c2c(c[n+]([O-])c1C)C(=O)C=CC2=O` [Compound 23]?
**A.** activity at 10 µM [3]: 44.5%; selectivity ratio NSCLC [1]: 2.1; GI50 [1]: 17900 ± 3360 nM; GI50 [2, 7]: 2490 nM; GI50 [2, 8]: 2150 nM; GI50 [4]: 2930 nM; GI50 ([5]; MDR ovarian): 3270 nM; GI50 [6]: 2510 nM

**Q.** Which results are given for `COC(=O)c1c2c(c[n+]([O-])c1C)C(=O)C(NCc1ccccc1)=CC2=O` [Compound 24]?
**A.** activity at 10 µM [3]: -35.1%; mean growth (%, 10 μM) [3]: -35.1%; selectivity ratio NSCLC [1]: 2; GI50 [1]: 380 ± 20 nM; GI50 concentration range against MDR NCI-H460/R [1]: nanomolar range; GI50 [2, 7]: 579 nM; GI50 [2, 8]: 690 nM; GI50 [4]: 320 nM; GI50 ([5]; MDR ovarian): 310 nM; GI50 [6]: 620 nM

**Q.** `COC(=O)c1c2c(c[n+]([O-])c1C)C(=O)C=C(NCc1ccccc1)C2=O` [Compound 25] was tested. Which “selectivity ratio NSCLC” value [1] did it give?
**A.** 1

**Q.** What about the GI50 [1] of the same compound?
**A.** 340 ± 30 nM

**Q.** What about the “GI50 concentration range” value [1] of the same compound?
**A.** nanomolar range

**Q.** What about the GI50 [2, 7] of the same compound?
**A.** 190 nM

**Q.** What about the “share of FDA approved anticancer agents outperformed in mean LC50” value ([2]; comparison with ref 45) of the same compound?
**A.** 86%

**Q.** And the “share of FDA approved anticancer agents with higher mean GI50” value ([2]; comparison with ref 45)?
**A.** 83%

**Q.** What about the GI50 [2, 8] of the same compound?
**A.** 210 nM

**Q.** What about the “cell lines with ≤200 nM GI50” value ([2]; five dose, number of cell lines out of 60) of the same compound?
**A.** 31/60

**Q.** What about the GI50 [4] of the same compound?
**A.** 240 nM

**Q.** And the GI50 [5]?
**A.** 227 nM

**Q.** What about the GI50 ([5]; MDR ovarian) of the same compound?
**A.** 230 nM

**Q.** What about the GI50 [6] of the same compound?
**A.** 250 nM

**Q.** `COc1cccc2c1C(=O)c1c(O)c3c(c(O)c1C2=O)C[C@@](O)(C(=O)CO)C[C@@H]3O[C@H]1C[C@H](N)[C@H](O)[C@H](C)O1` [doxorubicin, reference compound] was tested. Which GI50 [1] did it give?
**A.** 2460 ± 40 nM
